Results reported in US8093030B2, “Thermostable viral polymerases and methods of use” (Lucigen Corporation, priority 2005, dated 2012).

What was measured:
[1] = molecular target: polymerase 3173 (SEQ ID NO:6) mutant D49A (uncultured virus, UniProt R4KMS7, D72A); test: Inhibition of 5' Rox-labeled primer extension by chain terminators (ABI 310 Genetic Analyzer); type: biochemical; settings: ddNTPs 50, 500 and 5000 μM each vs 50 μM each dNTP (up to 100-fold molar excess); 70° C., 30 minutes
Description: (§1) In separate reactions, ddGTP, ddATP, ddTTP, and ddCTP were added to the above mix in concentrations of 50, 500 and 5000 μM each. Five units of polymerase 3173 mutant D49A were added and the reactions were incubated for 30 minutes at 70° C. Extension of the primer was detected by the ABI 310 Genetic Analyzer in Gene Scan mode.

[2] = molecular target: polymerase 3173 (SEQ ID NO:6) double mutant D49A/F418Y, SEQ ID NO:27 (uncultured virus, UniProt R4KMS7, D72A/F441Y); test: Fluorescent primer extension assay with ddGTP; type: biochemical
Sequence of polymerase 3173 (SEQ ID NO:6) double mutant D49A/F418Y, SEQ ID NO:27 (R4KMS7 entry or part of it D72A/F441Y): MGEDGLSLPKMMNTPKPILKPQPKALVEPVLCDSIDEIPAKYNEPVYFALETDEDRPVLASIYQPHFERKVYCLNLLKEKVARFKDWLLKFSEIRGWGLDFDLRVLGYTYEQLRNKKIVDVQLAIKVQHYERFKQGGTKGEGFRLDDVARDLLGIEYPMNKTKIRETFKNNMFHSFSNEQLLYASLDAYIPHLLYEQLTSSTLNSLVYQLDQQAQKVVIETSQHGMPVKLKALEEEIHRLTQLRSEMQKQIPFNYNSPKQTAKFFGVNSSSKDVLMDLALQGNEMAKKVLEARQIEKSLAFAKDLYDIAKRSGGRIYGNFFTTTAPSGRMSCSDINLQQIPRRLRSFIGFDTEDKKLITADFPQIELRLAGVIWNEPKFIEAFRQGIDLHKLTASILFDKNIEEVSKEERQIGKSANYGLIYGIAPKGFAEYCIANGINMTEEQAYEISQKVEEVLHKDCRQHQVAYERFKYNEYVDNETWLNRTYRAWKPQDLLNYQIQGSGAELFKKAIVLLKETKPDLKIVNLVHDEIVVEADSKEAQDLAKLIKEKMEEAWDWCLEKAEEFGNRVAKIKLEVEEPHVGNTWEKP
Description: as §1
The polymerase 3173 double mutant D49A/F418Y was also tested in the fluorescent primer extension assay described above.

lacIq gene = test: Fidelity assay, lacIq amplification with blue/white colony count; settings: 25 PCR cycles; target size 349 for lacIq
Description: Fidelity was determined by a modification of the standard assay in which the lacIq gene is amplified by the DNA polymerase of interest and inserted into a plasmid containing genes encoding a functional lacZ alpha peptide and a selectable marker. Primers of SEQ ID NOS:28 and 29 were used to amplify a sequence containing both the lacIq and the KanR gene. […] Normally a white phenotype is seen for clone containing this construct when plated on X-Gal. Mutation of the lacIq results in a blue phenotype for the colonies when plated on X-Gal.
For high fidelity PCR amplification, five units of the wild-type (proofreading) DNA polymerase 3173 (SEQ ID NO: 6) was tested using the following mix (50 mM Tris HCl (pH 9.0 at 25° C.), 50 mM KCl, 10 mM (NH4)2SO4, 1.5 mM MgSO4, 1.5 mM MgCl2, 0.1% triton-X100, 250 mM ectoine and 0.2 mM each of dGTP, dATP, dTTP and dCTP. Opposing primers of SEQ ID 28 and 29 (1 μM each) amplified the expected 2 k kb product from template SEQ ID 30 (10 ng). After thermal cycling (94° C. for 1 minute, 25 cycles of (94° C. for 15 seconds, 60° C. for 15 seconds, 72° C. for 2.5 minutes) and 72° C. 7 minutes), reaction products were quantified to determine “fold amplification,” (see below) using agarose gel electrophoresis. Both primers contain Eco109I sites. The PCR product was digested with Eco109I and inserted into the Eco109I site of pUC19. 10 G cells transformed by the construct were plated on LB plates containing ampicillin (100 μg/ml), kanamycin (30 μg/ml) and X-Gal (50 μg/ml). Blue and white colony counts were used for the fidelity determinations.

[3] = tested on: ROX-labeled 37 nt primer annealed to 41 nt template; test: Primer extension assay of heat-treated clone extracts (ABI 310 capillary electrophoresis); type: biochemical; settings: extract heated 70° C. 10 min; reaction 70° C. 10 minutes
Description: 34 complete polymerase genes from the library described in Examples 3 and 4, as well as 24 additional viral genes from three other similarly prepared libraries, were constitutively expressed in the E. CLONI 10 G cells (Lucigen, Middleton, Wis.). The proteins were extracted, heated to 70° C. for 10 minutes and tested for DNA polymerase activity using a primer extension assay as follows.
A primer of 37 nucleotides having the sequence shown in SEQ ID NO:23, labeled on its 5′ end with ROX, was annealed to a template of 41 nucleotides having the sequence shown in SEQ ID NO:24. […] The reaction was incubated at 70° C. for 10 minutes. The reactions were analyzed using an ABI 310 Genetic Analyzer. […] Of the 58 clones tested, a total of ten clones expressed detectable DNA polymerase (DNAP) activity. The clone number and corresponding polynucleotide sequence, polypeptide sequence, sequence similarity and E (expect)-values for these polymerases are shown below in Table 1.

Sequence of polymerase 3173 (SEQ ID NO:6) mutant D49A (R4KMS7 entry or part of it D72A): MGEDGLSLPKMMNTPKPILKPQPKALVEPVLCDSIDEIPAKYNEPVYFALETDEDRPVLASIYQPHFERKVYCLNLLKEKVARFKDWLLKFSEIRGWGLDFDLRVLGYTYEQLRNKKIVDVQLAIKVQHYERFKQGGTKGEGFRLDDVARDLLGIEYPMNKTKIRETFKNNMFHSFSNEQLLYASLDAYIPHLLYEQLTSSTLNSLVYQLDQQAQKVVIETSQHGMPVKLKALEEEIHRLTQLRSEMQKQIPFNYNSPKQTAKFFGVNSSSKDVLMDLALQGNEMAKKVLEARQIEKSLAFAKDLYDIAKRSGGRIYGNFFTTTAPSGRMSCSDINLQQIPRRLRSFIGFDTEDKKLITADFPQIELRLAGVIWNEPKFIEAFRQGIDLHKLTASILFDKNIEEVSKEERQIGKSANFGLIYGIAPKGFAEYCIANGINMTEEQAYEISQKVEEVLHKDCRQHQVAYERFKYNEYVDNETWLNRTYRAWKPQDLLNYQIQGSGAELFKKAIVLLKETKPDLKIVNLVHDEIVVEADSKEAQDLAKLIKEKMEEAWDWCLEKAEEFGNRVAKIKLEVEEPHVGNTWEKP

Q: For `Nc1ncnc2c1ncn2[C@H]1CC[C@@H](COP(=O)(O)OP(=O)(O)OP(=O)(O)O)O1` [ddATP], which “inhibition of primer extension” value [1] is on record?
A: no inhibition of primer extension was detected

Q: With `Nc1ccn([C@H]2CC[C@@H](COP(=O)(O)OP(=O)(O)OP(=O)(O)O)O2)c(=O)n1` [ddCTP] as the molecule, how does the “inhibition of primer extension” value [1] read?
A: no inhibition of primer extension was detected

Q: How did the “inhibition of primer extension” value [1] turn out when `Nc1nc2c(ncn2[C@H]2CC[C@@H](COP(=O)(O)OP(=O)(O)OP(=O)(O)O)O2)c(=O)[nH]1` [ddGTP] was run?
A: no inhibition of primer extension was detected

Q: What about the “inhibition of primer extension” value ([2]; 0.2× ratio of ddGTP:dGTP) of the same molecule?
A: nearly complete inhibition of primer extension, with no extension continuing beyond the fourth G residue

Q: What about the “inhibition of primer extension” value ([2]; 2× ratio of ddGTP:dGTP) of the same molecule?
A: almost completely inhibited any extension

Q: How did the “inhibition of primer extension” value [1] turn out when `Cc1cn([C@H]2CC[C@@H](COP(=O)(O)OP(=O)(O)OP(=O)(O)O)O2)c(=O)[nH]c1=O` [ddTTP] was run?
A: no inhibition of primer extension was detected

Q: Which Fidelity (lacIq gene) does the source give for “Taq: standard commercial DNA polymerase (Lucigen) used for comparison [reference compound]” here?
A: 9.76E+03

B1: Clone 967: thermostable viral DNA polymerase clone, polypeptide SEQ ID NO: 14 (protein)
chain: MQKEIPFNYNSPKQTAKLFGIDSSSKDVLMDLALRGNEVAKKVLEARQIEKSLAFAKDLYDIAKKNGGRIHGNFFTTTAPSGRMSCSDINLQQIPRRLRQFIGFETEDKKLITADFPQIELRLAGVMWNEPEFLKAFRDGIDLHKLTASILFDKKINEVSKEERQIGKSANFGLIYGISPKGFAEYCISNGINITEEMAIEIVKKWKKFYRKIAEQHQLAYERFKYAEFVDNETWLNRPYRAYKPQDLLNYQIQGSGAELFKKAIILLKETKPDLKLVNLVHDEIVVETSTEEAEDIALLVKQKMEEAWDYCLEKAKEFGNNVADIKLEVEKPNISSVWEKE
modifications: Uncultured newly isolated virus
Q: For B1, which “Exo (exonuclease activity, either 3′-5′ or 5′-3′)” value (shortened to “Exo”) [3] is on record?
A: No

B2: Clone 4110: thermostable viral DNA polymerase clone, polypeptide SEQ ID NO: 8 (protein)
chain: MGLDQILDMSYFVDSGATMLKLILRGSGGKNVVTVPAPFNPYFFIKKRDLDRAQSILPDYARVEDADAITAEGERVVKISVPTPPLVRVVREKLHEEGIESYEADIPYTRRVMIDLDLKVAYPETVAAFDIEVDATKGFPDINNPQSRVLSISVYDGSEEIFLCSDDEIEMFKEFNKLLRKYDVLIGWNSAAFDYPYLVERAKVLGYYVDEEMFQHVDIFGIFQTYFKREMSDFKLKTVALKVLGSKVPLGALLDFERPGDIRKLTEFFEKRRDLLKLYNMDQTKAIWMINSESGVLQTYITQARLANIIPWHRVSPRTDSSQEYISYNNDCRDLVLKKALAHKPRIVFPSKKNGENEDWDEDAKESTYTGAIVFNPIPGLWENVVLLDFASMYPRVIMTFNISYDTWTPNPGENDILAPHGGFITSREGFLPTVLRELEGYRSLAKKMVDAYEPGDPMRVIWNARQFAFKLILVSAYGVAGFRHSRLYRVEIAESITGYTRDAIMKAREVIERHGWRVLYGDTDSLFLYNPKITSVEKASEVASSELLPAINSFIRDYVVERWRVPRSRVVLEFKVDRVYSKLKLLSVKKRYYGLVAWEERMLEQPYIQIKGLEARRGDWPDLVKEIQSEVIKLYLLEGPIAVDRYLKEMKRKLLSGEIPLEKLVIKKHLNKRLDEYKHNAPHYRAARKLLEMRFPVRTGDRIEFIYLDDKVIPMVPGLKLSEVDLKKWWRKYVVPVVERLEIESRGS
modifications: Uncultured newly isolated virus
Q: Which “Exo” value [3] does the source give for B2 here?
A: No

B3: Clone 488: thermostable viral DNA polymerase clone, polypeptide SEQ ID NO: 4 (protein)
chain: AVGTWITTLQKLGFTYEELEDKEVLDLLSIARLVLPERFKENGFSLDVVLKEVLGIDYKFDKKTIRKTFTPLLMTQEQLEYIASDVIYLPALKEKLDEKFNKRLWLPYILDMEATKILAEVSNNGMPFLKEKAKEELSRLSKELEGLRKELGFNPNSPKETQKVLNTPDTSEATLMKLIISNSSKKAIAEKVIQARKIQKVIAMINKYLNYDRVKGTFWTTTAPSGRMSCDKENLQQIPRSIRYLFGFDENSDKTLVIADYPQIELRLAGVLWKEPKFIQAFNEGKDLHKQTASIIYGIPYEEVNKEQRQIAKSANFGLIYGMSVEGFANYCIKNGIPMDTQTAQHIVNSFFNFYGKIAEKHKEGNLIIQSQGIAEGYTWLGRRYIAQRLNDYLNYQIQGSGAELLKKAVMEIKSKYPYIKIVNLVHDEIVVEAYKDDAQDIARIIKQEMENAWEWCIQEAQKLGVDLTPVKLECENPTISNVWEK
modifications: Uncultured newly isolated virus
Q: Which “Exo” value [3] does the source give for B3 here?
A: No
